Reference: ChEMBL document CHEMBL5154693, “N-Methylpropargylamine-Conjugated Hydroxamic Acids as Dual Inhibitors of Monoamine Oxidase A and Histone Deacetylase for Glioma Treatment” (J Med Chem, 2022)
Calls of active or inactive are those of the source. No cut-off for these calls is given here.

What was measured:
[1] = Cytotoxicity against mouse GL26 cells assessed as inhibition of cell growth incubated for 48 hrs by MTT assay; type: functional, cell-based; details: GL26, 48 h
[2] = target: T1, Amine oxidase [flavin-containing] A (Homo sapiens, UniProt P21397); assay: Inhibition of MAO-A (unknown origin) expressed in mouse GL26 cells using 14C 5-hydroxytryptamine as substrate pre-incubated for 20 mins followed by substrate addition measured after 20 mins by liquid scintillation spectroscopy; type: cell-based
T1 sequence (P21397 whole entry): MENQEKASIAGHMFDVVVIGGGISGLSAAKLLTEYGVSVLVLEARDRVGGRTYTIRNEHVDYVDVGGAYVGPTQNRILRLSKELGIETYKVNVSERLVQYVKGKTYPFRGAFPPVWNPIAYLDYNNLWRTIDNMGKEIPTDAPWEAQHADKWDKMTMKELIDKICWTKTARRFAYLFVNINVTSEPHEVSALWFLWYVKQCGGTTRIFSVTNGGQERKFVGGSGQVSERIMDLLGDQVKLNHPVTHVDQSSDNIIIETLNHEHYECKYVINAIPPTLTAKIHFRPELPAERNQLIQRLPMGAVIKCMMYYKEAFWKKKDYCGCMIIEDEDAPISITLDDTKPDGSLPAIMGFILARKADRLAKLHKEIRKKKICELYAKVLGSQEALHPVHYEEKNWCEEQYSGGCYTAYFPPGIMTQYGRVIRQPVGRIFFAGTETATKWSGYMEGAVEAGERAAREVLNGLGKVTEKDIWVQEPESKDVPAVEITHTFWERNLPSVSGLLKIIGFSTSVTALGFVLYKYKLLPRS

[3] = target: Histone deacetylase 1 (Homo sapiens, UniProt Q13547); assay: Inhibition of human HDAC1 (379 to 382 residues) using RHKKAc-AMC fluorogenic peptide as substrate by fluorescence assay
Chain of Histone deacetylase 1 (Q13547 whole entry, the tested form may be a part): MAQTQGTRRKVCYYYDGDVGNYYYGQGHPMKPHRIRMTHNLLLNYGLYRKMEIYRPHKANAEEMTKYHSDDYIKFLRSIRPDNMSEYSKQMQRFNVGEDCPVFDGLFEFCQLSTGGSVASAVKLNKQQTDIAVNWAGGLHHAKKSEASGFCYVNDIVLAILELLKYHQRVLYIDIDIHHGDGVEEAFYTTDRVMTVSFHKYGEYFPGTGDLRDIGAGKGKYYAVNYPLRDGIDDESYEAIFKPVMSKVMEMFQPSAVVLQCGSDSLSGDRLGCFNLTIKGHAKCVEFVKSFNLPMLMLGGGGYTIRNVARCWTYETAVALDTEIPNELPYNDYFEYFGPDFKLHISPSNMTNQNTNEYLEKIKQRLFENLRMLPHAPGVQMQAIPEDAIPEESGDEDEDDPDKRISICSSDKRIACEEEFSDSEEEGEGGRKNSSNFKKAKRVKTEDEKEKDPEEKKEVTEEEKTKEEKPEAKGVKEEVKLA

[4] = target: Histone deacetylase 2 (Homo sapiens, UniProt Q92769); assay: Inhibition of human HDAC2 (379 to 382 residues) using RHKKAc-AMC fluorogenic peptide as substrate by fluorescence assay
Chain of Histone deacetylase 2 (Q92769 whole entry, the tested form may be a part): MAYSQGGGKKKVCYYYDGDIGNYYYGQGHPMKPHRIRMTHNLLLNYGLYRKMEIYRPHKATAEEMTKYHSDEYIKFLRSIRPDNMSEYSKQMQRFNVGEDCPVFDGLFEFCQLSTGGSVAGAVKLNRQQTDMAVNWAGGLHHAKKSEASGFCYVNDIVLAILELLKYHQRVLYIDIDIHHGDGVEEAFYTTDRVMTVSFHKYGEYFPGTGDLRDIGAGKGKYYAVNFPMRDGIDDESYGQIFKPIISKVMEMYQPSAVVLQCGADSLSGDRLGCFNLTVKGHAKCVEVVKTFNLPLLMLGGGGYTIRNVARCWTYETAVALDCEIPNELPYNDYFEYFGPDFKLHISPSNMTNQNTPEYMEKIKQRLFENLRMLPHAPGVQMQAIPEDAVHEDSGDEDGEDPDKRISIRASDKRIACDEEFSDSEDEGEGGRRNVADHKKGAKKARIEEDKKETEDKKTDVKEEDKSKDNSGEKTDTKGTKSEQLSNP

[5] = target: T2, Protein deacetylase HDAC6 (Homo sapiens, UniProt Q9UBN7); assay: Inhibition of human HDAC6 (379 to 382 residues) using RHKKAc fluorogenic peptide as substrate by fluorescence assay
T2 sequence (Q9UBN7 whole entry): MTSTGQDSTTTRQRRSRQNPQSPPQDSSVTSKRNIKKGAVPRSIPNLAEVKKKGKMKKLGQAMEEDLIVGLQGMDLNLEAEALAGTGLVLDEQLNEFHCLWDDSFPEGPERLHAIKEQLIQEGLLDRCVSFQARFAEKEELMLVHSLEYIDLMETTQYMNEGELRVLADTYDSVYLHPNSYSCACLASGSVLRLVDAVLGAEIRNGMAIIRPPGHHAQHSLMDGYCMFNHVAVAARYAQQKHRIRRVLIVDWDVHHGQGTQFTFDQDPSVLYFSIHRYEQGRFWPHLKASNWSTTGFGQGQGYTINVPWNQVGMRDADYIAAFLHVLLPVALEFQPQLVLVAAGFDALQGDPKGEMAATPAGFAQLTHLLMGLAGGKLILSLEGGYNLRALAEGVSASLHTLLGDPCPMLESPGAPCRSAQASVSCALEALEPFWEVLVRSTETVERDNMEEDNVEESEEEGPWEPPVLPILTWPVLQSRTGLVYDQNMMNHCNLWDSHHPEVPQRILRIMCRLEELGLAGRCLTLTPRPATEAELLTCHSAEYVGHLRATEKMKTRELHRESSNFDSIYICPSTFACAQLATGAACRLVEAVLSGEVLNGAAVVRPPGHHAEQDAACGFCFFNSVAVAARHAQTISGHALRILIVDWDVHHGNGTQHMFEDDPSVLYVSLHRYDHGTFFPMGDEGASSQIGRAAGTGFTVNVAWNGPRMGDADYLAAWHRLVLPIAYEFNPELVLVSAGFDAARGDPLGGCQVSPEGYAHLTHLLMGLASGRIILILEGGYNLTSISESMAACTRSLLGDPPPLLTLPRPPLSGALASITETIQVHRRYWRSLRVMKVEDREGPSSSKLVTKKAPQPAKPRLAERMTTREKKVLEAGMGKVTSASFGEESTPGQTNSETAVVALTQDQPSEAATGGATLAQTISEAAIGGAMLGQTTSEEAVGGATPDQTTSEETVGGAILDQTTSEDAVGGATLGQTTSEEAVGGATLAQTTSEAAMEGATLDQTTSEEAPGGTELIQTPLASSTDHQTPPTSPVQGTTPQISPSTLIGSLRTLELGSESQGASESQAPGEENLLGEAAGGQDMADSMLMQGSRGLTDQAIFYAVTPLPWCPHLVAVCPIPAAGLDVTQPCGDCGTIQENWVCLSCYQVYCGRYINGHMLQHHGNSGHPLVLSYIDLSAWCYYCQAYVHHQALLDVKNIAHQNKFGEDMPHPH

[6] = target: T3, Histone deacetylase 8 (Homo sapiens, UniProt Q9BY41); assay: Inhibition of human HDAC8 (379 to 382 residues) using RHKKAcKAc-AMC fluorogenic peptide as substrate by fluorescence assay
T3 sequence (Q9BY41 whole entry): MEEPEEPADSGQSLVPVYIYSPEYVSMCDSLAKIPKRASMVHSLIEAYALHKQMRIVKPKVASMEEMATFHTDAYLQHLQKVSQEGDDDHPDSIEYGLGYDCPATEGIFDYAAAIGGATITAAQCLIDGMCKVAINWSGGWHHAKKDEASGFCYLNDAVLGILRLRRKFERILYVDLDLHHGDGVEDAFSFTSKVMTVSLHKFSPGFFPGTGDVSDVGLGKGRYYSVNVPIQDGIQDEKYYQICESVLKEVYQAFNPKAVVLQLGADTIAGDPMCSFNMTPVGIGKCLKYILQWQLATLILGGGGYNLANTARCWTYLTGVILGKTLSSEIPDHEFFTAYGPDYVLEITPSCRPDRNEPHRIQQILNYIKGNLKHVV

[7] = test system: U-251; assay: cells; type: functional, cell-based; details: Homo sapiens, U-251, 48 h
Description: Cytotoxicity against human TMZ-sensitive U251 cells assessed as inhibition of cell growth incubated for 48 hrs by MTT assay

[8] = test system: U-251; assay: cells; type: functional, cell-based; details: Homo sapiens, U-251, 48 h; remark: listed apart in the source
Description: Cytotoxicity against human TMZ-resistant U251 cells assessed as inhibition of cell growth incubated for 48 hrs by MTT assay

[9] = test system: Mus musculus; assay: In vivo inhibition of MAO-A in C57BL6 mouse xenografted with mouse GL26 cells as decrease in MAO activity in brain at 50 mg/kg, ip by radiometric analysis; type: functional, organism-based
[10] = test system: GL26; assay: Antitumor activity against mouse GL26 cells implanted in C57BL6 mouse assessed as reduction in tumor size at 50 mg/kg, ip daily measured for 10 days by bioluminescence assay; type: functional, organism-based; details: time 10.0 day
[11] = Toxicity in C57BL6 mouse xenografted with mouse GL26 cells as assessed as last day of survival at 50 mg/kg, ip for 14 days treatment started at 5 days post-infection (Rvb=14 days); type: organism-based; details: in vivo, 336 h, time 14 day
[12] = test system: Mus musculus; assay: (§1) In vivo inhibition of MAO-A in mouse xenografted with mouse GL26 assessed as decrease in MAO activity in tumor at 50 mg/kg by radiometric analysis; type: functional
[13] = test system: Mus musculus; assay: In vivo inhibition of MAO-A in mouse xenografted with mouse GL26 assessed as decrease in MAO activity in brain at 25 mg/kg, ip administered for 10 days by bioluminescence assay; type: functional, organism-based; details: time 10.0 day
[14] = test system: Mus musculus; assay: In vivo inhibition of MAO-A in mouse xenografted with mouse GL26 assessed as decrease in MAO activity in tumor at 25 mg/kg, ip administered for 10 days by bioluminescence assay; type: functional, organism-based; details: time 10.0 day
[15] = Toxicity in mouse bearing intracranial tumor assessed as median survival time at 50 mg/kg, ip for 10 days (Rvb= 13.8 days); type: organism-based; details: in vivo, 240 h, time 10 day
[16] = Toxicity in mouse bearing intracranial tumor assessed as assessed as median survival time at 50 mg/kg, ip for 14 days treatment started at 5 days post-infection (Rvb=12.8 days); type: organism-based; details: in vivo, 336 h, time 14 day
[17] = Toxicity in mouse bearing intracranial tumor assessed as assessed as median survival time at 25 mg/kg, ip treatment started at 7 dpi (Rvb=18.25 days); type: organism-based; details: in vivo, 438 h
[18] = Toxicity in mouse bearing intracranial tumor assessed as last day of survival at 25 mg/kg, ip treatment started at 7 dpi (Rvb=19 days); type: organism-based; details: in vivo, 456 h
[19] = test system: U-251; assay: Cytotoxicity against human U251 cells assessed as inhibition of cell growth incubated for 48 hrs by MTT assay; type: functional, cell-based; details: DDE = dose-dependent effect
[20] = target: Lysine-specific histone demethylase 1A (Homo sapiens, UniProt O60341); assay: Inhibition of human LSD1 assessed as demethylase activity of LSD1 using Histone H3(1-21)K4me2 peptide as substrate incubated for 30 mins followed by substrate addition by amplex red dye based HRP-coupled assay
[21] = as §1; type: functional; parameters: scale not given: the % may be the effect or the level left
[22] = Toxicity in mouse bearing intracranial tumor assessed as last day of survival at 50 mg/kg,ip for 10 days (Rvb=16 days); type: organism-based; details: in vivo, 240 h, time 10 day
[23] = test system: GL26; assay: Induction of apoptosis in mouse GL26 cells assessed as proteolytic cleavage of PARP1 incubated for 48 hrs by Western blot analysis; type: functional, cell-based; details: dose 1.25-5 µM, DDE = dose-dependent effect
[24] = Toxicity in mouse bearing intracranial tumor assessed as last day of survival at 25 mg/kg, ip in presence of clorgyline for 10 days (Rvb=16 days); type: organism-based; details: in vivo, 240 h, time 10 day
[25] = Toxicity in mouse bearing intracranial tumor assessed as last day of survival at 50 mg/kg, ip in presence of clorgyline for 10 days (Rvb=16 days); type: organism-based; details: in vivo, 240 h, time 10 day
[26] = Toxicity in mouse bearing intracranial tumor assessed as median survival time at 25 mg/kg, ip in presence of clorgyline for 10 days (Rvb=13.8 days); type: organism-based; details: in vivo, 240 h, time 10 day
[27] = Toxicity in mouse bearing intracranial tumor assessed as median survival time at 50 mg/kg, ip in presence of clorgyline for 10 days (Rvb=13.8 days); type: organism-based; details: in vivo, 240 h, time 10 day

C#CCN(C)CCCOc1cc(NC(=O)CCCCCCCC(=O)NO)ccc1Cl
IC50 [1]: 19300 nM | IC50 [2]: 20 nM | IC50 [3]: 2310 nM | IC50 [4]: 4180 nM | IC50 [5]: 80 nM | IC50 [6]: 1120 nM | IC50 [7]: 11500 nM | IC50 [8]: 4780 nM

C#CCN(C)CCCOc1cc(NC(=O)CCCCCCCCC(=O)NO)ccc1Cl
IC50 [1]: 1040 nM | IC50 [2]: < 0.1 nM | IC50 [3]: 1420 nM | IC50 [4]: 3630 nM | IC50 [5]: 160 nM | IC50 [6]: 2480 nM | IC50 [7]: 33200 nM | IC50 [8]: 16200 nM | Activity [9]: Active | Activity [10]: Active | Survival [11]: 16 days | Activity [12]: Active | Activity [13]: Active | Activity [14]: Active | Survival [15]: 14.8 days | MST [16]: 14.5 days | MST [17]: 18 days | Survival [18]: 21 days

C#CCN(C)CCCOc1cc(NCc2ccc(C(=O)NO)cc2)ccc1Cl
IC50 [1]: 2410 nM | Activity [19]: Dde | IC50 [2]: 0.4 nM | IC50 [3]: 2510 nM | IC50 [4]: 4750 nM | IC50 [5]: 10 nM | IC50 [6]: 1170 nM | EC50 [20]: 6000 nM | IC50 [7]: 10100 nM | IC50 [8]: 7120 nM | Activity [9]: Active | Activity [10]: Active | Survival [11]: 18 days | Activity [21]: 90% | Activity [13]: Active | Activity [14]: Active | Survival [15]: 16.8 days | Survival [22]: 20 days | MST [16]: 14.25 days | MST [17]: 19.75 days | Survival [18]: 23 days

C#CCN(C)CCCOc1cccc(NC(=O)CCCCCCC(=O)NO)c1Cl
IC50 [1]: 1740 nM | IC50 [2]: 23300 nM | IC50 [3]: 890 nM | IC50 [4]: 3210 nM | IC50 [5]: 90 nM | IC50 [6]: 1470 nM | IC50 [7]: 5820 nM | IC50 [8]: 4090 nM

C#CCN(C)CCCOc1cc(NC(=O)CCCCCCC(=O)NO)ccc1Cl
IC50 [1]: 1150 nM | IC50 [2]: 3250 nM | IC50 [3]: 30 nM | IC50 [4]: 150 nM | IC50 [5]: 10 nM | IC50 [6]: 50 nM | IC50 [7]: 120 nM | IC50 [8]: 600 nM

O=C(CCCCCCC(=O)Nc1ccccc1)NO [VORINOSTAT]
IC50 [1]: 2200 nM | Activity [23]: Dde | Survival [15]: 13.8 days | Survival [24]: 14 days | Survival [25]: 18 days | MST [26]: 13.8 days | MST [27]: 14.4 days

C#CCN(C)CCCOc1cc(NC(=O)CCCCCCC(=O)NO)c(Cl)cc1Cl
IC50 [1]: 74000 nM | IC50 [2]: 430 nM | IC50 [3]: 3290 nM | IC50 [4]: 6680 nM | IC50 [5]: 60 nM | IC50 [6]: 1780 nM | IC50 [7]: 50600 nM | IC50 [8]: 8670 nM
